The target of one assay is T1, KCNQ2/3 channels (Homo sapiens, UniProt O43525+O43526).
T1 construct: expressed in transfected cells; host or cells: CHO-K1
The assay is described as follows: Fluorescence assay using a voltage sensitive dye (fluorimetry). As to conditions: CHO-K1 cells expressing KCNQ2/3 channels; for Emax: relative to retigabine = 100%, read-out: Fluorimetry % efficacy (retigabine = 100%). The assay is classed as cell-based. The protocol:
Method I. Fluorescence Assay Using a Voltage Sensitive Dye (Fluorimetry)
[…] CHO-K1 cells expressing KCNQ2/3 channels are cultivated adherently at 37° C., 5% CO2 and 95% humidity in cell culture bottles (e.g. 80 cm^2 TC flasks, Nunc) with DMEM-high glucose (Sigma Aldrich, D7777) including 10% FCS (PAN Biotech, e.g. 3302-P270521) or alternatively MEM Alpha Medium (1×, liquid, Invitrogen, #22571), 10% fetal calf serum (FCS) (Invitrogen, #10270-106, heat-inactivated) and the necessary selection antibiotics.
Before being sown out for the measurements, the cells are washed with 1×DPBS buffer Ca^2+/Mg^2+-free (e.g. Invitrogen, #14190-094) and detached from the bottom of the culture vessel by using Accutase (PAA Laboratories, #L11-007) (incubation with Accutase for 15 min at 37° C.). The cell number is determined using a CASY™ cell counter (TCC, Schärfe System). Depending on the optimal density for each individual cell line, 20,000-30,000 cells/well/100 μl are seeded onto 96-well Corning™ CellBIND™ assay plates (Flat Clear Bottom Black Polystyrene Microplates, #3340). Freshly seeded cells are then left to settle for one hour at room temperature, followed by incubation for 24 hours at 37° C., 5% CO2 and 95% humidity.
The voltage-sensitive fluorescent dye from the Membrane Potential Assay Kit (Red™ Bulk format part R8123 for FLIPR, MDS Analytical Technologies™) is prepared by dissolving the contents of one vessel Membrane Potential Assay Kit Red Component A in 200 ml of extracellular buffer (ES buffer, 120 mM NaCl, 1 mM KCl, 10 mM HEPES, 2 mM CaCl2, 2 mM MgCl2, 10 mM glucose; pH 7.4). After removal of the nutrient medium, the cells are washed once with 200 μl of ES buffer, then loaded for 45 min at room temperature in 100 μl of dye solution in the dark.
Fluorescence measurements are carried out in a BMG Labtech FLUOstar™, BMG Labtech NOVOstar™ or BMG Labtech POLARstar™ instrument (525 nm excitation, 560 nm emission, Bottom Read mode). After incubation with the dye, 50 μl of the test substances in the desired concentrations, or 50 μl of ES buffer for control purposes, are applied to the wells of the assay plate and incubated for 30 min at room temperature while being shielded from light. The fluorescence intensity of the dye is then measured for 5 min and the fluorescence value F1 of each well is thus determined at a given, constant time. 15 μl of a KCl solution are then added to each well (final concentration of potassium ions 92 mM). The change in fluorescence intensity is subsequently monitored until all the relevant values have been obtained (mainly 5-30 min). At a given time post KCl application, a fluorescence value F2 is determined, in this case at the time of the fluorescence peak.
For calculation, the fluorescence intensity F2 is corrected for the fluorescence intensity F1, and the activity (ΔF/F) of the target compound on the potassium channel is determined as follows:
In order to determine whether a substance has agonistic activity,
[formula] can be related to
[formula] of control wells.
[formula] is determined by adding to the well only the buffer solution instead of the test substance, determining the value F1K of the fluorescence intensity, adding the potassium ions as described above, and measuring a value F2K of the fluorescence intensity. F2K and F1K are then calculated as follows: […]
A substance has an agonistic activity on the potassium channel if
[formula] is greater than
Independently of the comparison of
[formula] it is possible to conclude that a target compound has agonistic activity if
[formula] increases dose dependently.
Calculations of EC50 and IC50 values are carried out with the aid of ‘Prism v4.0’ software (Graph Pad Software™).

In assay [1] the test system is withdrawal reflex of the rat tail (tail flick) in response to a radiant heat beam. The assay can be described thus: Low-intensity tail flick test (rat). Type of assay: in vivo. As to conditions: po, peroral, read-out: Low intensity tail flick, rat, peroral, MPE (dose). The protocol:
Method II. Low-Intensity Tail Flick Test (Rat)
In the low-intensity tail flick test, the determination of the antinociceptive effect of the compounds according to the invention towards an acute noxious thermal stimulus is carried out by measuring the withdrawal reflex of the rat tail (tail flick) in response to a radiant heat beam (analgesia meter; model 2011 of the company Rhema Labortechnik, Hofheim, Germany) according to the method described by D'Amour and Smith (J. Pharm. Exp. Ther. 72, 74 79 (1941). To this end, the rats were placed in a plexiglas restrainer, and a low-intensity radiant heat beam (48° C.) was focused onto the dorsal surface of the tail root. The stimulus intensity was adjusted to result in a mean pre-drug control withdrawal latency of about 7 s, thus also allowing a supraspinal modulation of the spinally mediated acute nociceptive reflex. A cutoff time of 30 s was applied to avoid tissue damage. Male Sprague-Dawley rats (Janvier, Le Genest St. Isle, Frankreich) with weights of 200-250 g were used. 10 rats were used per group. Before administration of a compound according to the invention, the animals were pre-tested twice in the course of five minutes and the mean of these measurements was calculated as the pre-test mean. The antinociceptive effect was determined at 20, 40 and 60 min after peroral compound administration. The antinociceptive effect was calculated based on the increase in the tail withdrawal latency according to the following formula and is expressed as percentage of the maximum possible effect (MPE [%]): MPE=[(T1−T0)/(T2−T0)]*100
In this, T0 is the control latency time before and T1 the latency time after administration of the compound, T2 is the cutoff time and MPE is the maximum possible effect. Employing variant analysis (repeated measures ANOVA) allowed testing of statistically significant differences between the compounds according to the invention and the vehicle group. The significance level was set to p≦0.05. To determine the dose dependency, the particular compound according to the invention was administered in 3-5 logarithmically increasing doses, including a threshold dose and a maximum effective dose, and the ED50 values were determined with the aid of regression analysis. The ED50 calculation was performed at the time of maximum efficacy (usually 20 min after administration of the compounds).

As for `COc1nc2cc(C(F)(F)F)ccc2c(OC)c1C(=O)NCc1cccc(F)c1` [Example 13, N-[(3-fluorophenyl)-methyl]-2,4-dimethoxy-7-(trifluoromethyl)-quinoline-3-carboxylic acid amide], at KCNQ2/3 channels, the half-maximal effective concentration (EC50) (in general, the midpoint of the concentration-response curve) amounted to 136 nM and the Emax stood at 147%. In assay [1], the inhibition in vivo at 10 mg/kg came out at 10%.
With `COc1nc2cc(C(F)(F)F)ccc2c(OC)c1C(=O)NCc1ccc(F)cc1` [Example 16, N-[(4-fluorophenyl)-methyl]-2,4-dimethoxy-7-(trifluoromethyl)-quinoline-3-carboxylic acid amide], on KCNQ2/3 channels, it took 106 nM to reach a half-maximal effect (EC50) and the Emax was 159%. In addition, the inhibition in vivo at 10 mg/kg in assay [1] worked out at 74%.
On the same counts, the results for `CCOc1nc2cc(C(F)(F)F)ccc2c(C)c1C(=O)NCc1ccc(C)c(F)c1` [Example 20, 2-ethoxy-N-[(3-fluoro-4-methyl-phenyl)-methyl]-4-methyl-7-(trifluoromethyl)-quinoline-3-carboxylic acid amide] are 72 nM, 146% and 24%.
Turning to `CCOc1nc2cc(C(F)(F)F)ccc2c(C)c1C(=O)NCc1cccc(C)c1` [Example 22, 2-ethoxy-4-methyl-N-(m-tolyl-methyl)-7-(trifluoromethyl)-quinoline-3-carboxylic acid amide], on KCNQ2/3 channels, a half-maximal effect (EC50) was put at 58 nM and the Emax came to 111%. Moreover, the inhibition in vivo at 10 mg/kg in assay [1] was 20%.
Regarding `CCOc1nc2cc(C(F)(F)F)ccc2c(C)c1C(=O)NCc1ccc(F)c(C)c1` [Example 24, 2-ethoxy-N-[(4-fluoro-3-methyl-phenyl)-methyl]-4-methyl-7-(trifluoromethyl)-quinoline-3-carboxylic acid amide], at KCNQ2/3 channels, the EC50 was 53 nM and the Emax is 108%. Further, the inhibition in vivo at 6.81 mg/kg in assay [1] worked out at 17%.
Take `COc1nc2cc(C(F)(F)F)ccc2c(C)c1C(=O)NCCCC(C)(C)C` [Example 29, N-(4,4-dimethyl-pentyl)-2-methoxy-4-methyl-7-(trifluoromethyl)-quinoline-3-carboxylic acid amide]: at KCNQ2/3 channels, the EC50 was determined as 28 nM and the Emax was found to be 244%. In addition, the inhibition in vivo at 10 mg/kg in assay [1] was determined as 28%.
On to `CCOc1nc2cc(C#N)ccc2c(C)c1C(=O)NCc1ccc(F)cc1` [Example 35, 7-cyano-2-ethoxy-N-[(4-fluorophenyl)-methyl]-4-methyl-quinoline-3-carboxylic acid amide], for which, on KCNQ2/3 channels, the EC50 amounted to 82 nM and the Emax worked out at 112%. The inhibition in vivo at 6.81 mg/kg in assay [1] was 32%.
For the compound `Cc1c(C(=O)NCc2cccc(F)c2)c(OCC(F)(F)F)nc2cc(C(F)(F)F)ccc12` [Example 50, N-[(3-fluorophenyl)-methyl]-4-methyl-2-(2,2,2-trifluoro-ethoxy)-7-(trifluoromethyl)-quinoline-3-carboxylic acid amide], on KCNQ2/3 channels, it took 25 nM to reach a half-maximal effect (EC50) and the Emax amounted to 108%. The inhibition in vivo at 10 mg/kg in assay [1] was 24%.

These data come from patent publication US9073862B2, “Substituted 2-oxy-quinoline-3-carboxamides as KCNQ2/3 modulators” (Grünenthal GmbH, priority 2010, dated 2015).
